# Patent US9668995B2, “Treatment of motor fluctuations” (Motac Neuroscience Limited, priority 2000, dated 2017)
# System: MPTP-lesioned marmoset model of Parkinson's disease
# Experiment: L-DOPA-induced fluctuations in locomotion in the MPTP-lesioned marmoset model of Parkinson's disease
# Type: in vivo, Marmosets (Callithrix jacchus)
# Settings: 8-OH PIPAT 10 mg/kg co-administered with L-DOPA 8 mg/kg, locomotion assessed every 5 minutes over six hours
# Protocol: The effect of the 5-HT1a-receptor agonist 8-OH-PIPAT on L-DOPA-induced fluctuations in locomotion was assessed in the MPTP-lesioned marmoset model of Parkinson's disease.
# Marmosets (Callithrix jacchus) (bred in a closed colony at the University of Manchester) are rendered parkinsonian by subcutaneous injection of 2 mg kg^−1 MPTP for 5 consecutive days. The marmosets are allowed to recover for a minimum of 10 weeks until their parkinsonism becomes stable.
# A quantitative assessment of locomotor activity was assessed every 5 minutes for the duration of the experiment using computer-based activity monitors.
# Locomotion was measured over a six hour period using Benwick activity monitors. These locomotion monitors consist of a visually-shielded open-field arena, the perimeter of which is surrounded by a series of infra-red beams arranged at 5 cm intervals. PC-based software (Amlogger) assesses the number of beams broken. The number of beams broken as part of a locomotor movement (mobile counts) was measured.
# Marmosets were split into two groups. The first group received L-DOPA (8 mg/kg) and vehicle for 8-OH PIPAT only whereas the second group received L-DOPA (8 mg/kg) and 8-OH PIPAT (10 mg/kg).
compound,measurement,value
"CCCN(C/C=C/I)C1CCc2cccc(O)c2C1 (racemic) [8-OH-PIPAT, (RS)-trans-8-hydroxy-2-[N-n-propyl-N-(3′-iodo-2′-propenyl)amino]tetralin]","L-DOPA-stimulated 'on-time' (locomotor activity, mobile counts)",increase in L-DOPA-stimulated ‘on-time’
